The values below are quoted from earlier work in patent US20030157061A1, “Combinations of a cyclooxygenase-2 selective inhibitor and a TNFalpha antagonist and therapeutic uses therefor” (Pharmacia Corporation, priority 2001, published 2003).

This series has as its system fibroblast growth factor-induced corneal angiogenesis. To be noted: rats.

For `Cc1ccc(-c2cc(C(F)(F)F)nn2-c2ccc(S(N)(=O)=O)cc2)cc1` [Celecoxib, 4-[5-(4-methylphenyl)-3-(trifluoromethyl)-1H-pyrazol-1-yl]benzenesulfonamide], the “inhibition of fibroblast growth factor-induced corneal angiogenesis” value is recorded as “potent inhibition”.
